From patent publication US12480137B2, “Plants having increased tolerance to herbicides” (BASF SE, priority 2014, dated 2025)

Key:
Assay type in all cases: in vivo, Arabidopsis thaliana
[1] = system: Cesa3_S983F, fpx1-3 mutant line; test: Greenhouse phytotox, pre-emergent treatment
Procedure: (§1) Additionally, M2 or M3 Arabidopsis plants are tested for improved tolerance to cellulose biosynthesis-inhibiting herbicides in greenhouse studies (e. g. with the following cellulose biosynthesis-inhibiting herbicides: 6-cyclopentyl-N4-(2,3,4,5,6-pentafluorophenyl)-1,3,5-triazine-2,4-diamine; 6-(1-fluoro-1-methyl-ethyl)-N4-(2,3,4,5,6-pentafluorophenyl)-1,3,5-triazine-2,4-diamine; N4-(4-chloro-3,5,6-trifluoro-2-pyridyl)-6-(1-fluoro-1-methyl-ethyl)-1,3,5-triazine-2,4-diamine; 6-(2,6-difluorophenyl)-N4-(2,3,5,6-tetrafluorophenyl)-1,3,5-triazine-2,4-diamine; N4-(4-bromo-2,3,5,6-tetrafluoro-phenyl)-6-(1-fluoro-1-methyl-ethyl)-1,3,5-triazine-2,4-diamine.

[2] = system: Cesa1_G1013R, fpx2-1 mutant line; test: Greenhouse phytotox, pre-emergent treatment
Procedure: as §1

A. thaliana WT L. erecta = test: Greenhouse phytotox, pre-emergent treatment
Procedure: as §1

[3] = system: Cesa1_G1009D, fpx2-3 mutant line; test: Greenhouse phytotox, pre-emergent treatment
Procedure: as §1

[4] = system: Cesa1_P1010L, fpx2-2 mutant line; test: Greenhouse phytotox, pre-emergent treatment
Procedure: as §1

[5] = system: Cesa3_S1040L, fpx1-1 mutant line; test: Greenhouse phytotox, pre-emergent treatment
Procedure: as §1

[6] = system: Cesa3_S1037F, fpx1-2 mutant line; test: Greenhouse phytotox, pre-emergent treatment
Procedure: as §1

[7] = system: Arabidopsis mutant line Cesa3_S1037F; test: Growth inhibition of Arabidopsis lines in 48-well plates, tolerance factor from IC50; conditions: growth inhibition seven to ten days after seeding
Excerpt: (§2) For selection of cellulose biosynthesis inhibitor resistant plants EMS mutagenized seed populations of Arabidopsis thaliana are used. EMS mutagenized seed populations are either bought from Lehle Seeds (1102 South Industrial Blvd. Suite D, Round Rock, Texas USA) or are generated as described elsewhere (Heim D R, et. al. (1989) Plant Physiol. 90: 146-150). Causative mutations in CESA wildtype sequences (e.g. SEQ ID NO: 1 or 3) are identified as described by Scheible W R et. al. (2001, Proc. Natl. Acad. of Sci. 98: 10079-10084), McCourt et. al. (WO2013/142968) or with the use of next generation sequencing methods as described by Austin R S, et. al. (2011) Plant Journal 67: 715-725.
(§3) Selected Arabidopsis thaliana lines were assayed for improved resistance to azines like 6-cyclopentyl-N4-(2,3,4,5,6-pentafluorophenyl)-1,3,5-triazine-2,4-diamine; 6-(1-fluoro-1-methyl-ethyl)-N4-(2,3,4,5,6-pentafluorophenyl)-1,3,5-triazine-2,4-diamine; 6-cyclohexyl-N2-(2,3,4,5,6-pentafluorophenyl)-1,3,5-triazine-2,4-diamine; 6-(2,6-difluorophenyl)-N2-(2,3,5,6-tetrafluorophenyl)-1,3,5-triazine-2,4-diamine; N2-(4-chloro-3,5,6-trifluoro-2-pyridyl)-6-(1-fluoro-1-methyl-ethyl)-1,3,5-triazine-2,4-diamine in 48-well plates. Therefore, M2 or M3 seeds are surface sterilized by stirring for 5 min in ethanol+water (70+30 by volume), rinsing one time with ethanol+water (70+30 by volume) and two times with sterile, deionized water. The seeds are resuspended in 0.1% agar dissolved in water (w/v) Four to five seeds per well are plated on solid nutrient medium consisting of half-strength murashige skoog nutrient solution, pH 5.8 (Murashige and Skoog (1962) Physiologia Plantarum 15: 473-497). Compounds are dissolved in dimethylsulfoxid (DMSO) and added to the medium prior solidification (final DMSO concentration 0.1%). Multi well plates are incubated in a growth chamber at 22° C., 75% relative humidity and 110 μmol Phot*m^−2*s^−1 with 14:10 h light:dark photoperiod. Growth inhibition is evaluated seven to ten days after seeding in comparison to wild type plants. Tolerance factors are calculated based on IC50 values of growth inhibition of transformed versus non-transformed Arabidopsis plants (Table 3).

[8] = system: Arabidopsis mutant line Cesa3_S1040L; test: as above; conditions: growth inhibition seven to ten days after seeding
Excerpt: as §2, §3

[9] = system: Arabidopsis mutant line Cesa3_S983F; test: as above; conditions: growth inhibition seven to ten days after seeding
Excerpt: as §2, §3

[10] = system: Arabidopsis mutant line Cesa1_P1010L; test: as above; conditions: growth inhibition seven to ten days after seeding
Excerpt: as §2, §3

[11] = system: Arabidopsis mutant line Cesa1_G1009D; test: as above; conditions: growth inhibition seven to ten days after seeding
Excerpt: as §2, §3

[12] = system: wildtype Arabidopsis plants; test: as above; conditions: growth inhibition seven to ten days after seeding
Excerpt: as §2, §3

[13] = system: Arabidopsis mutant line Cesa1_G1013R; test: as above; conditions: growth inhibition seven to ten days after seeding
Excerpt: as §2, §3

| Structure (SMILES) | Phytotox value on a scale from 0-100 (100 is 100% damage) ([1]; 0.98 g ai/ha) | Phytotox value on a scale from 0-100 (100 is 100% damage) ([1]; 3.91 g ai/ha) | Phytotox value on a scale from 0-100 (100 is 100% damage) ([2]; 0.98 g ai/ha) | Phytotox value on a scale from 0-100 (100 is 100% damage) ([2]; 3.91 g ai/ha) | Phytotox value on a scale from 0-100 (100 is 100% damage) (A. thaliana WT L. erecta; 0.98 g ai/ha) | Phytotox value on a scale from 0-100 (100 is 100% damage) (A. thaliana WT L. erecta; 3.91 g ai/ha) | Phytotox value on a scale from 0-100 (100 is 100% damage) ([3]; 0.98 g ai/ha) | Phytotox value on a scale from 0-100 (100 is 100% damage) ([3]; 3.91 g ai/ha) | Phytotox value on a scale from 0-100 (100 is 100% damage) ([4]; 0.98 g ai/ha) | Phytotox value on a scale from 0-100 (100 is 100% damage) ([4]; 3.91 g ai/ha) | Phytotox value on a scale from 0-100 (100 is 100% damage) ([5]; 0.98 g ai/ha) | Phytotox value on a scale from 0-100 (100 is 100% damage) ([5]; 3.91 g ai/ha) | Phytotox value on a scale from 0-100 (100 is 100% damage) ([6]; 0.98 g ai/ha) | Relative tolerance rate (wildtype = 1.0) [7] | Relative tolerance rate (wildtype = 1.0) [8] | Relative tolerance rate (wildtype = 1.0) [9] | Relative tolerance rate (wildtype = 1.0) [10] | Relative tolerance rate (wildtype = 1.0) [11] | Relative tolerance rate (wildtype = 1.0) [12] | Relative tolerance rate (wildtype = 1.0) [13] | also measured |
| --- | --- | --- | --- | --- | --- | --- | --- | --- | --- | --- | --- | --- | --- | --- | --- | --- | --- | --- | --- | --- | --- |
| CC(C)(F)c1nc(N)nc(Nc2c(F)c(F)c(F)c(F)c2F)n1 [6-(1-fluoro-1-methyl-ethyl)-N4-(2,3,4,5,6-pentafluorophenyl)-1,3,5-triazine-2,4-diamine] | 75 | 98 | 63 | 97 | 100 | 100 | 97 | 100 | 99 | 100 | 75 | 98 | 30 | 4 | 2 | 1 | 1 | 2 | 1 | 4 | Phytotox value on a scale from 0-100 (100 is 100% damage) ([1]; 0.0625 g ai/ha): 78; Phytotox value on a scale from 0-100 (100 is 100% damage) ([1]; 0.25 g ai/ha): 45; Phytotox value on a scale from 0-100 (100 is 100% damage) ([2]; 0.0625 g ai/ha): 13; Phytotox value on a scale from 0-100 (100 is 100% damage) ([2]; 0.25 g ai/ha): 65; Phytotox value on a scale from 0-100 (100 is 100% damage) (A. thaliana WT L. erecta; 0.0625 g ai/ha): 38; Phytotox value on a scale from 0-100 (100 is 100% damage) (A. thaliana WT L. erecta; 0.25 g ai/ha): 78; Phytotox value on a scale from 0-100 (100 is 100% damage) ([3]; 0.0625 g ai/ha): 65; Phytotox value on a scale from 0-100 (100 is 100% damage) ([3]; 0.25 g ai/ha): 78; Phytotox value on a scale from 0-100 (100 is 100% damage) ([4]; 0.0625 g ai/ha): 43; Phytotox value on a scale from 0-100 (100 is 100% damage) ([4]; 0.25 g ai/ha): 50; Phytotox value on a scale from 0-100 (100 is 100% damage) ([5]; 0.0625 g ai/ha): 20; Phytotox value on a scale from 0-100 (100 is 100% damage) ([5]; 0.25 g ai/ha): 65; Phytotox value on a scale from 0-100 (100 is 100% damage) ([6]; 0.0625 g ai/ha): 10; Phytotox value on a scale from 0-100 (100 is 100% damage) ([6]; 0.25 g ai/ha): 20; Phytotox value on a scale from 0-100 (100 is 100% damage) ([6]; 3.91 g ai/ha): 80 |
| Nc1nc(Nc2c(F)c(F)cc(F)c2F)nc(-c2c(F)cccc2F)n1 [6-(2,6-difluorophenyl)-N2-(2,3,5,6-tetrafluorophenyl)-1,3,5-triazine-2,4-diamine] | 18 | 35 | 15 | 35 | 30 | 70 | 65 | 38 | 48 | 35 | 13 | 8 | 28 | 1 | 13 | 1 | 2 | 1 | 1 | 13 | Phytotox value on a scale from 0-100 (100 is 100% damage) ([1]; 15.63 g ai/ha): 43; Phytotox value on a scale from 0-100 (100 is 100% damage) ([1]; 62.5 g ai/ha): 33; Phytotox value on a scale from 0-100 (100 is 100% damage) ([2]; 15.63 g ai/ha): 28; Phytotox value on a scale from 0-100 (100 is 100% damage) ([2]; 62.5 g ai/ha): 40; Phytotox value on a scale from 0-100 (100 is 100% damage) (A. thaliana WT L. erecta; 15.63 g ai/ha): 90; Phytotox value on a scale from 0-100 (100 is 100% damage) (A. thaliana WT L. erecta; 62.5 g ai/ha): 100; Phytotox value on a scale from 0-100 (100 is 100% damage) ([3]; 15.63 g ai/ha): 18; Phytotox value on a scale from 0-100 (100 is 100% damage) ([3]; 62.5 g ai/ha): 95; Phytotox value on a scale from 0-100 (100 is 100% damage) ([4]; 15.63 g ai/ha): 65; Phytotox value on a scale from 0-100 (100 is 100% damage) ([4]; 62.5 g ai/ha): 98; Phytotox value on a scale from 0-100 (100 is 100% damage) ([5]; 15.63 g ai/ha): 25; Phytotox value on a scale from 0-100 (100 is 100% damage) ([5]; 62.5 g ai/ha): 28; Phytotox value on a scale from 0-100 (100 is 100% damage) ([6]; 3.91 g ai/ha): 65; Phytotox value on a scale from 0-100 (100 is 100% damage) ([6]; 15.63 g ai/ha): 73; Phytotox value on a scale from 0-100 (100 is 100% damage) ([6]; 62.5 g ai/ha): 99 |
| Nc1nc(Nc2c(F)c(F)c(F)c(F)c2F)nc(C2CCCCC2)n1 [6-cyclohexyl-N2-(2,3,4,5,6-pentafluorophenyl)-1,3,5-triazine-2,4-diamine] | – | – | – | – | – | – | – | – | – | – | – | – | – | 1 | 10 | 1 | 1 | 1 | 1 | 4 | – |
| CC(C)(F)c1nc(N)nc(Nc2nc(F)c(F)c(Cl)c2F)n1 [N2-(4-chloro-3,5,6-trifluoro-2-pyridyl)-6-(1-fluoro-1-methyl-ethyl)-1,3,5-triazine-2,4-diamine] | 48 | 13 | 70 | 80 | 83 | 99 | 93 | 99 | 78 | 98 | 78 | 53 | 25 | 10 | 4 | 4 | 1 | 1 | 1 | 10 | Phytotox value on a scale from 0-100 (100 is 100% damage) ([1]; 0.0625 g ai/ha): 23; Phytotox value on a scale from 0-100 (100 is 100% damage) ([1]; 0.25 g ai/ha): 55; Phytotox value on a scale from 0-100 (100 is 100% damage) ([2]; 0.0625 g ai/ha): 40; Phytotox value on a scale from 0-100 (100 is 100% damage) ([2]; 0.25 g ai/ha): 50; Phytotox value on a scale from 0-100 (100 is 100% damage) (A. thaliana WT L. erecta; 0.0625 g ai/ha): 45; Phytotox value on a scale from 0-100 (100 is 100% damage) (A. thaliana WT L. erecta; 0.25 g ai/ha): 60; Phytotox value on a scale from 0-100 (100 is 100% damage) ([3]; 0.0625 g ai/ha): 30; Phytotox value on a scale from 0-100 (100 is 100% damage) ([3]; 0.25 g ai/ha): 43; Phytotox value on a scale from 0-100 (100 is 100% damage) ([4]; 0.0625 g ai/ha): 50; Phytotox value on a scale from 0-100 (100 is 100% damage) ([4]; 0.25 g ai/ha): 25; Phytotox value on a scale from 0-100 (100 is 100% damage) ([5]; 0.0625 g ai/ha): 13; Phytotox value on a scale from 0-100 (100 is 100% damage) ([5]; 0.25 g ai/ha): 15; Phytotox value on a scale from 0-100 (100 is 100% damage) ([6]; 0.0625 g ai/ha): 5; Phytotox value on a scale from 0-100 (100 is 100% damage) ([6]; 0.25 g ai/ha): 15; Phytotox value on a scale from 0-100 (100 is 100% damage) ([6]; 3.91 g ai/ha): 25 |
